# Experiments:
# [1] = Hippocampal level of WT TIDM after intranasal administration (ESI-MS); type: in vivo; settings: male, B6SJL-Tg(APPSwFlLon,PSEN1*M146L*L286V)6799Vas/J (5XFAD), mouse, hippocampus (brain tissue), inhaled or intranasal, Tg mice, 1 intranasal dose 0.1 mg/kg BW, 60 minutes after administration, read-out: level of WT TIDM peptide in hippocampus
# Description: It is becoming clear that glial inflammation plays an important role in the loss of neurons in AD and other neurodegenerative disorders ([7], [9], [22]–[24]). […] We first determined whether the WT TIDM peptide could enter into the hippocampus. Tg mice were treated with TIDM peptides intranasally, and after 60 minutes of administration, we detected WT TIDM peptide in the hippocampus of Tg mice by electrospray ionization–coupled mass spectrometry (ESI-MS) (Figure 5, A and C). […] The level of WT TIDM peptide was 23.33 ± 14.14 ng/g brain tissue in the hippocampus of WT TIDM–treated Tg mice compared with nil in the saline-treated Tg mice. By infrared scanning, we also detected TIDM peptide in hippocampus after intranasal treatment (Supplemental Figure 10). […]
# Tg mice (6 months of age) received 1 intranasal dose of WT TIDM peptide (0.1 mg/kg BW). After 60 minutes of treatment, mice were perfused with sterile saline, and hippocampi were homogenized and supernatant analyzed for WT TIDM by ESI-MS (A, WT TIDM standard; B, untreated 5XFAD-Tg; C, WT TIDM–treated 5XFAD-Tg). […] Cells positive for Iba-1 (E, CA1; F, CA3), p-p65 (G, CA1; H, CA3), and iNOS (I, CA1; J, CA3) were counted in 2 sections (2 images/slide) from each of 6 different mice (n = 6) per group. ^†P < 0.001 versus non-Tg; ^††P < 0.001 versus Tg; 2-sample t test. […]
# 5XFAD-Tg mice = assay: Gross motor activity of 5XFAD-Tg mice; type: in vivo, mouse; settings: 0.1 mg/kg BW/2 d intranasal, 30 days, n=8
# Text: The ultimate objective of neuroprotection in AD is to improve and/or protect memory. Major functions of the hippocampus are to generate and organize long-term memory and spatial learning. Therefore, we examined whether WT TIDM peptide protected memory and learning in Tg mice. As expected, Tg mice took much longer to find the food reward hole and had greater latency (P < 0.001 [= 0.0000213]) with higher errors (P < 0.001 [= 0.0000251]) in the Barnes maze as compared with non-Tg mice. […] Likewise, on the T-maze test, untreated Tg mice also had fewer positive turns (P < 0.001 [= 0.0000440]) and a higher number of negative turns (P < 0.001 [= 0.000223]) than did age-matched non-Tg mice (Figure 6, L and M). […] We also monitored the short-term memory of Tg mice using the novel object recognition (NOR) test. […]
# treatment, hippocampal extracts of all groups of mice (n=4 per group) were analyzed for protein levels of Aβ by Western blot using 82E1 mAb. […] Results were analyzed by […]
# Figure S14. […] After 30d of treatment, ELISA quantification of Aβ1-40 (A, C & E) and Aβ1-42 (B, D & F) was performed in serum (A & B) and TBS (C & D) and (TBS+Triton X-100) (E & F) extracted hippocampal tissues. […]
# Figure S15. […] After 30d of treatment, hippocampal extracts of all groups of mice (n=4 per group) were analyzed for phospho-tau and total tau by Western blot. […] Results were analyzed by two-sample t-tests. […]
# [2] = target: T1, cMyc-tagged C-terminal TIR domain of TLR2 protein (cTLR2), purified recombinant protein (mouse, UniProt Q9QUN7 640-784); assay: SPR; cTLR2 (0.8 mg/ml, PBS) immobilised on a 500-kDa carboxymethyl dextran gold sensor slide (Reichert 4SPR); WT TIDM and mTIDM peptides injected in PBS running buffer, 30 μl/min, 2.5 min association, 3 min dissociation; KD from the response at equilibrium versus peptide concentration; settings: both partners purified
# T1 construct: TLR2, mouse, C-terminal TIR domain, amino acids 640-784; subcloned from the full-length construct pLenti-cMyc-DDK/Tlr2 (Origene); also called cMyc-tagged cTLR2 recombinant protein; TLR2 (in the SPR methods)
# T1 sequence (Q9QUN7 640-784): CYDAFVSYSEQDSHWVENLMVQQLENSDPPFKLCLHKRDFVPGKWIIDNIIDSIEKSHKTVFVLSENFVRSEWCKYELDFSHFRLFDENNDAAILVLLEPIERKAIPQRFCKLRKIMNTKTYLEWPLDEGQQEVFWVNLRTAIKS
Kd [2] [µM],Molecule,tissue level at time at 1 h [1] [ng/g],"gross motor activity (movements, horizontal activity, rest time, stereotypy) (5XFAD-Tg mice)"
–,CC[C@H](C)[C@H](NC(=O)[C@H](CCCCN)NC(=O)[C@@H](NC(=O)[C@H](CCC(N)=O)NC(=O)[C@H](CCCNC(=N)N)NC(=O)[C@@H](N)CC(=O)O)[C@@H](C)CC)C(=O)N[C@@H](Cc1c[nH]c2ccccc12)C(=O)N[C@@H](Cc1ccccc1)C(=O)N[C@@H](CCC(N)=O)C(=O)N[C@@H](CC(N)=O)C(=O)N[C@@H](CCCNC(=N)N)C(=O)N[C@@H](CCCNC(=N)N)C(=O)N[C@@H](CCSC)C(=O)N[C@@H](CCCCN)C(=O)N[C@@H](Cc1c[nH]c2ccccc12)C(=O)N[C@@H](CCCCN)C(=O)N[C@@H](CCCCN)C(=O)N1CCC[C@H]1C(=O)NCC(=O)N[C@@H](C)C(=O)N[C@@H](Cc1c[nH]cn1)C(=O)N[C@@H](CCC(N)=O)C(=O)N[C@@H](CCCCN)C(=O)O [WT TIDM],23.3 ± 14.1,neither the WT TIDM nor the mTIDM peptide modulated the gross motor activity of Tg mice
–,CC[C@H](C)[C@H](NC(=O)[C@H](CCCCN)NC(=O)[C@@H](NC(=O)[C@H](CCC(N)=O)NC(=O)[C@H](CCCNC(=N)N)NC(=O)[C@@H](N)CC(=O)O)[C@@H](C)CC)C(=O)N[C@@H](Cc1c[nH]c2ccccc12)C(=O)N[C@@H](Cc1ccccc1)C(=O)N[C@@H](CCC(N)=O)C(=O)N[C@@H](CC(N)=O)C(=O)N[C@@H](CCCNC(=N)N)C(=O)N[C@@H](CCCNC(=N)N)C(=O)N[C@@H](CCSC)C(=O)N[C@@H](CCCCN)C(=O)N[C@@H](Cc1c[nH]c2ccccc12)C(=O)N[C@@H](CCCCN)C(=O)N[C@@H](CCCCN)C(=O)N1CCC[C@H]1C(=O)NCC(=O)N[C@@H](Cc1c[nH]c2ccccc12)C(=O)N[C@@H](Cc1c[nH]cn1)C(=O)N[C@@H](CCC(N)=O)C(=O)N[C@@H](CC(=O)O)C(=O)O [mTIDM],–,neither the WT TIDM nor the mTIDM peptide modulated the gross motor activity of Tg mice
8,DRQIKIWFQNRRMKWKKPGAHQK (Drosophila; the printed order is kept),–,–
19,"DRQIKIWFQNRRMKWKKPGWHQD (Drosophila; MyD88, mouse, residues 245-250 of the CD loop with two underlined mutations (A to W, K to D); positions 247 and 250 counted from the printed limits 245 and 250; also called mTIDM) [mutated TIDM peptide]",–,–
